One compound from patent publication US20190038628A1, “USE OF INHIBITORS OF THE ACTIVITY OR FUNCTION OF PI3K FOR THE TREATMENT OF PRIMARY SJOGREN'S SYNDROME” (Novartis AG, priority 2016, published 2019) can be followed below.

Molecules are shown by their SMILES. Values joined by “and” are separate entries in the source; they are usually repeats but may differ in a detail not shown here. Equal values may be shown once.

Assay [1] relates to BPMC derived from human healthy volunteers. Description: Chemokines in supernatant of PBMC from healthy volunteers stimulated with CpG or anti-IgM (summary statement). It is filed as cell-based. An excerpt: Phosphorylated Akt (pAkt) is a downstream effector of PI3K delta activation. 1-{(S)-3-[6-(6-Methoxy-5-trifluoromethyl-pyridin-3-yl)-5,6,7,8-tetrahydro-pyrido[4,3-d]pyrimidin-4-ylamino]-pyrrolidin-1-yl}-propan-1-one or pharmaceutically acceptable salts thereof is a PI3K inhibitor with a selectivity for the PI3K delta isoform (WO2012/004299). […] 1) Chronic B-cell hyperactivity is a consistent and prominent immunoregulatory abnormality in pSS (Hansen A et al, Arthritis Research & Therapy 2007; 9; 218). […] 1-{(S)-3-[6-(6-Methoxy-5-trifluoromethyl-pyridin-3-yl)-5,6,7,8-tetrahydro-pyrido[4,3-d]pyrimidin-4-ylamino]-pyrrolidin-1-yl}-propan-1-one or pharmaceutically acceptable salts thereof inhibits CXCL13 (BCA-1, BLC), but also of CXCL10 (IP-10) and CCL4 (MIP-1beta) in supernatant of BPMC derived from human healthy volunteers stimulated with CpG or anti-IgM. • 3) Characteristic features in pSS include the formation of ectopic lymphoid tissue with germinal center (GC)-like structures. In healthy individuals, GCs are generated from primary B-cell follicles of secondary lymphoid organs during T-cell-dependent immune responses (Hansen A et al, Arthritis Research & Therapy 2007; 9; 218).

In assay [2] the test system is Human Peripheral Blood Mononuclear Cells (PBMC). Description: anti-IgM-Dextran-induced IP-10 production of human PBMC. It counts as cell-based. To be noted: for IP-10 in culture supernatant: individual donors 1-6; for IP-10 in culture supernatant, mean: mean of 6 donors. An excerpt: For evaluating the effect of compound A on the production of chemokines relevant for the formation of germinal centers, PBMC were isolated from Buffy Coat (collected through Inter-Regionale Blutspende of the Swiss Red Cross) by standard Ficoll gradient centrifugation using Ficoll-Paque plus (GE healthcare #17-1440-03) in Leucosep tubes (Greiner Bio-one #227289). Cells were washed two times with PBS and then resuspended at 2.2×10^6/mL in RPMI 1640 medium supplemented with 10% FBS, Gentamycine (50 ug/ml), Insulin-Transferrin-Selenium and P-Mercaptoethanol (50 uM).
PBMC were dispensed to 48-well plates (Costar #3548) and incubated with pre-diluted compound A resulting in a dilution with a final concentration of 0.3, 1 or 3 uM. Control samples were pretreated with DMSO to obtain a final concentration of 0.03% DMSO. Samples were mixed thoroughly and incubated in a humified incubator at 37° C. for 1 h. Cells were thereafter stimulated by the addition of the TLR9 agonist ODN M362 (Invivogen, #tlrl-m362) at a final concentration of 30 ug/ml or anti-IgM-Dextran (Finabiosolution #0004) at a final concentration of 2 ug/ml. Control samples were left unstimulated. Samples were mixed thoroughly and incubated in a humified incubator at 37° C. for 24 h.
After the stimulation, culture supernatants were harvested and chemokines quantified by Bio-Plex Multiplex immunoassay (CXCL13; Bio Rad #171 BK12MR2) or MSD V-Plex assay (IP-10; Meso Scale Diagnostics) or according to the manufacturer's instructions.

Usually inhibition stands for the percentage by which the read-out fell short of the control. Read a low inhibition as a response near the control. Regarding `CCC(=O)N1CC[C@H](Nc2ncnc3c2CN(c2cnc(OC)c(C(F)(F)F)c2)CC3)C1` [Compound A, 1-{(S)-3-[6-(6-Methoxy-5-trifluoromethyl-pyridin-3-yl)-5,6,7,8-tetrahydro-pyrido[4,3-d]pyrimidin-4-ylamino]-pyrrolidin-1-yl}-propan-1-one], in assay [1], the “CCL4 (MIP-1beta) in supernatant (in words)” value is listed as “inhibits”; the “CXCL10 (IP-10) in supernatant (in words)” value is recorded as “inhibits”; the “CXCL13 (BCA-1, BLC) in supernatant (in words)” value is listed as “inhibits”. Moreover, in assay [2] (Compound A 300 nM), the “IP-10 in culture supernatant” value was 79 pg/mL and 32 pg/mL and 37 pg/mL and 1233 pg/mL and 52 pg/mL and 2764 pg/mL; the “IP-10 in culture supernatant, mean” value is 699 pg/mL. Also, in assay [2] (Compound A 1000 nM), the “IP-10 in culture supernatant” value was 71 pg/mL and 29 pg/mL and 42 pg/mL and 1010 pg/mL and 52 pg/mL and 1624 pg/mL; the “IP-10 in culture supernatant, mean” value came out at 471 pg/mL. In assay [2] (Compound A 3000 nM), the “IP-10 in culture supernatant” value was 93 pg/mL and 27 pg/mL and 34 pg/mL and 899 pg/mL and 59 pg/mL and 715 pg/mL; the “IP-10 in culture supernatant, mean” value worked out at 305 pg/mL. Also, at 0.3 µM the inhibition in assay [2] (Homo sapiens, PBMC, Compound A 300 nM) was 12%. The compound further showed an inhibition at 1 µM in assay [2] (Homo sapiens, PBMC, Compound A 1000 nM) of 41%. For the same compound, at 3 µM the inhibition in assay [2] (Homo sapiens, PBMC, Compound A 3000 nM) was 62%.
